For six compounds, EC50 results are on record in patent US20130345312A1, “TREATMENT OF MITOCHONDRIAL DISEASES WITH NAPHTHOQUINONES” (priority 2010, published 2013).

What all share (format): cell-based
In experiment [1] the test system is FRDA fibroblasts (Coriell GM04078). As to the kind of experiment: Rescue of BSO-stressed human dermal fibroblasts from Friedreich's ataxia patients (Calcein AM viability). The following applies: FRDA fibroblasts stressed with 1 mM BSO, 48 h, Calcein AM fluorescence, read-out: protection against FRDA, EC50. As for the experimental part: Test samples and solvent controls were tested for their ability to rescue FRDA fibroblasts stressed by addition of L-buthionine-(S,R)-sulfoximine (BSO), as described in Jauslin et al., Hum. Mol. Genet. 11(24):3055 (2002), Jauslin et al., FASEB J. 17:1972-4 (2003), and International Patent Application WO 2004/003565. […] This specific BSO-mediated cell death can be prevented by administration of antioxidants or molecules involved in the antioxidant pathway, such as alpha-tocopherol, selenium, or small molecule glutathione peroxidase mimetics. However, antioxidants differ in their potency, i.e. the concentration at which they are able to rescue BSO-stressed FRDA fibroblasts. MEM (a medium enriched in amino acids and vitamins, catalog no. 1-31F24-I) and Medium 199 (M199, catalog no. 1-21F22-I) with Earle's Balanced Salts, without phenol red, were purchased from Bioconcept. Fetal Calf Serum was obtained from PAA Laboratories. Basic fibroblast growth factor and epidermal growth factor were purchased from PeproTech. Penicillin-streptomycin-glutamine mix, L-buthionine (S,R)-sulfoximine, and insulin from bovine pancreas were purchased from Sigma. Calcein AM was purchased from Molecular Probes. Cell culture medium was made by combining 125 ml M199 EBS, 50 ml Fetal Calf Serum, 100 U/ml penicillin, 100 μg/ml streptomycin, 2 mM glutamine, 10 μg/ml insulin, 10 ng/ml EGF, and 10 ng/ml bFGF; MEM EBS was added to make the volume up to 500 ml. A 10 mM BSO solution was prepared by dissolving 444 mg BSO in 200 ml of medium with subsequent filter-sterilization. During the course of the experiments, this solution was stored at +4° C. The cells were obtained from the Coriell Cell Repositories (Camden, N.J.; repository number GM04078) and grown in 10 cm tissue culture plates. Every third day, they were split at a 1:3 ratio. The test samples were supplied in 1.5 ml glass vials. The compounds were diluted with DMSO, ethanol or PBS to result in a 5 mM stock solution. Once dissolved, they were stored at −20° C. Test samples were screened according to the following protocol: A culture with FRDA fibroblasts was started from a 1 ml vial with approximately 500,000 cells stored in liquid nitrogen. Cells were propagated in 10 cm cell culture dishes by splitting every third day in a ratio of 1:3 until nine plates were available. Once confluent, fibroblasts were harvested. For 54 micro titer plates (96 well-MTP) a total of 14.3 million cells (passage eight) were re-suspended in 480 ml medium, corresponding to 100 μL medium with 3,000 cells/well. The remaining cells were distributed in 10 cm cell culture plates (500,000 cells/plate) for propagation. The plates were incubated overnight at 37° C. in a atmosphere with 95% humidity and 5% CO2 to allow attachment of the cells to the culture plate. MTP medium (243 μL) was added to a well of the microtiter plate. The test compounds were unfrozen and 7.5 μL of a 5 mM stock solution was dissolved in the well containing 243 μL medium, resulting in a 150 μM master solution. Serial dilutions from the master solution were made. The period between the single dilution steps was kept as short as possible (generally less than 1 second). Plates were kept overnight in the cell culture incubator. The next day, 10 μL of a 10 mM BSO solution were added to the wells, resulting in a 1 mM final BSO concentration. Forty-eight hours later, three plates were examined under a phase-contrast microscope to verify that the cells in the 0% control (wells E1-H1) were clearly dead. The medium from all plates was discarded, and the remaining liquid was removed by gently tapping the plate inversed onto a paper towel. 100 μl of PBS containing 1.2 μM Calcein AM were then added to each well. The plates were incubated for 50-70 minutes at room temperature. After that time the PBS was discarded, the plate gently tapped on a paper towel and fluorescence (excitation/emission wavelengths of 485 nm and 525 nm, respectively) was read on a Gemini fluorescence reader. […]

The subject of experiment [2] is cells obtained from CoQ10 deficient patients harboring a CoQ2 mutation. Briefly: Rescue of fibroblasts from CoQ10 deficient patients from oxidative stress (screen similar to Example A). The following applies: Fibroblast, human dermal fibroblasts from CoQ10 deficient patients (CoQ2 mutation), read-out: protection against CoQ10 deficiency, EC50. On the procedure: Compounds of the invention were tested using a screen similar to the one described in Example A, but substituting FRDA cells with cells obtained from CoQ10 deficient patients harboring a CoQ2 mutation. The compounds were tested for their ability to rescue human dermal fibroblasts from CoQ10 deficient patients from oxidative stress.

Experiment [3] relates to Huntington's cells (Coriell GM 04281). As to the kind of experiment: Rescue of fibroblasts from Huntington's patients from oxidative stress (screen as in Example A). The following applies: Fibroblast, human dermal fibroblasts from Huntington's patients, read-out: protection against Huntington's, EC50. On the procedure:
Compounds of the invention were tested using the screen as described in Example A, but substituting FRDA cells with Huntington's cells obtained from the Coriell Cell Repositories (Camden, N.J.; repository number GM 04281). The compounds were tested for their ability to rescue human dermal fibroblasts from Huntington's patients from oxidative stress.

For experiment [4], the system named is Leber's Hereditary Optic Neuropathy (LHON) cells (Coriell GM03858). Briefly: Rescue of fibroblasts from Leber's Hereditary Optic Neuropathy patients from oxidative stress (screen as in Example A). The following applies: Fibroblast, human dermal fibroblasts from LHON patients, read-out: protection against LHON, EC50. As for the experimental part: Compounds of the invention were screened as described in Example A, but substituting FRDA cells with Leber's Hereditary Optic Neuropathy (LHON) cells obtained from the Coriell Cell Repositories (Camden, N.J.; repository number GM03858). The compounds were tested for their ability to rescue human dermal fibroblasts from LHON patients from oxidative stress.

Experiment [5] deals with Parkinson's disease (PD) cells (Coriell AG20439). As to the kind of experiment: Rescue of fibroblasts from Parkinson's disease patients from oxidative stress (screen as in Example A). The following applies: Fibroblast, human dermal fibroblasts from Parkinson's disease patients, read-out: protection against PD, EC50. On the procedure: Compounds of the invention were screened as described in Example A, but substituting FRDA cells with Parkinson's disease (PD) cells obtained from the Coriell Cell Repositories (Camden, N.J.; repository number AG20439). The compounds were tested for their ability to rescue human dermal fibroblasts from Parkinson's disease patients from oxidative stress.

For `COC1=CC(=O)c2ccccc2C1=O` [2-methoxynaphthalene-1,4-dione], the EC50 – broadly, the concentration at which the effect is half-maximal – in experiment [1] was less than 100 nM; in experiment [2] it was less than 100 nM; in experiment [3] it was less than 150 nM; in experiment [4], less than 150 nM.
As to `COC1=C(OC)C(=O)c2ccccc2C1=O` [2,3-dimethoxynaphthalene-1,4-dione], the EC50 was less than 100 nM in experiment [1], less than 100 nM in experiment [2], less than 150 nM in experiment [3] and less than 150 nM in experiment [4].
For the compound `CCCCC1=C(C)C(=O)c2ccccc2C1=O` [2-butyl-3-methylnaphthalene-1,4-dione], the EC50 is less than 200 nM in experiment [5]; less than 100 nM in experiment [1]; less than 100 nM in experiment [2]; less than 150 nM in experiment [3]; less than 150 nM in experiment [4].
As for `CC1=C(C)C(=O)c2ccccc2C1=O` [2,3-dimethylnaphthalene-1,4-dione], the EC50 in experiment [5] is less than 200 nM; in experiment [1] it was less than 100 nM; in experiment [2], less than 100 nM; in experiment [3], less than 150 nM; in experiment [4] it was less than 150 nM.
Take `CCCCCCC1=C(C)C(=O)c2ccccc2C1=O` [2-hexyl-3-methylnaphthalene-1,4-dione]: the EC50 in experiment [5] was less than 200 nM; in experiment [1], less than 100 nM; in experiment [2], less than 100 nM; in experiment [3], less than 150 nM; in experiment [4] it was less than 150 nM.
In the case of `O=C1C=CC(=O)c2ccccc21` [naphthalene-1,4-dione], the EC50 in experiment [5] is less than 200 nM; in experiment [1], less than 100 nM; in experiment [3] it was less than 150 nM; in experiment [4], less than 150 nM.
